Data taken from PubChem BioAssay (NCI).
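96-well plates; 48 h exposure; 5 concentrations. Endpoints by linear interpolation between flanking doses. Not reached: highest tested concentration assigned. TGI marks complete inhibition of growth.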

Experiments:
Assay in all cases: NCI anticancer screen, dose series, 48 h
786-0 renal = test system: 786-0 renal
A498 renal = test system: A498 renal
A549 NSCLC = test system: A549 NSCLC
ACHN renal = test system: ACHN renal
CAKI-1 renal = test system: CAKI-1 renal
COLO 205 colon = test system: COLO 205 colon
DLD-1 colon = test system: DLD-1 colon
DMS 114 small cell lung = test system: DMS 114 small cell lung
DMS 273 small cell lung = test system: DMS 273 small cell lung
EKVX NSCLC = test system: EKVX NSCLC
HCC-2998 colon = test system: HCC-2998 colon
HCT-116 colon = test system: HCT-116 colon
HCT-15 colon = test system: HCT-15 colon
HL-60(TB) leukemia = test system: HL-60(TB) leukemia
HOP-62 NSCLC = test system: HOP-62 NSCLC
HOP-92 NSCLC = test system: HOP-92 NSCLC
HT29 colon = test system: HT29 colon
IGROV1 ovarian = test system: IGROV1 ovarian
K-562 leukemia = test system: K-562 leukemia
KM20L2 colon = test system: KM20L2 colon
LOX IMVI melanoma = test system: LOX IMVI melanoma
LXFL 529 NSCLC = test system: LXFL 529 NSCLC
M14 melanoma = test system: M14 melanoma
M19-MEL melanoma = test system: M19-MEL melanoma
MALME-3M melanoma = test system: MALME-3M melanoma
MOLT-4 leukemia = test system: MOLT-4 leukemia
NCI-H226 lung = test system: NCI-H226 lung
NCI-H23 lung = test system: NCI-H23 lung
NCI-H460 lung = test system: NCI-H460 lung
NCI-H522 lung = test system: NCI-H522 lung
OVCAR-3 ovarian = test system: OVCAR-3 ovarian
OVCAR-4 ovarian = test system: OVCAR-4 ovarian
OVCAR-5 ovarian = test system: OVCAR-5 ovarian
OVCAR-8 ovarian = test system: OVCAR-8 ovarian
RPMI-8226 leukemia = test system: RPMI-8226 leukemia
RXF 393 renal = test system: RXF 393 renal
RXF-631 renal = test system: RXF-631 renal
SF-268 CNS = test system: SF-268 CNS
SF-295 CNS = test system: SF-295 CNS
SF-539 CNS = test system: SF-539 CNS
SK-MEL-2 melanoma = test system: SK-MEL-2 melanoma
SK-MEL-28 melanoma = test system: SK-MEL-28 melanoma
SK-MEL-5 melanoma = test system: SK-MEL-5 melanoma
SK-OV-3 ovarian = test system: SK-OV-3 ovarian
SN12C renal = test system: SN12C renal
SNB-19 CNS = test system: SNB-19 CNS
SNB-75 CNS = test system: SNB-75 CNS
SNB-78 CNS = test system: SNB-78 CNS
SW-620 colon = test system: SW-620 colon
TK-10 renal = test system: TK-10 renal
UACC-257 melanoma = test system: UACC-257 melanoma
UACC-62 melanoma = test system: UACC-62 melanoma
UO-31 renal = test system: UO-31 renal
XF 498 CNS = test system: XF 498 CNS
CCRF-CEM leukemia = test system: CCRF-CEM leukemia
HOP-18 NSCLC = test system: HOP-18 NSCLC
KM12 colon = test system: KM12 colon
SR leukemia = test system: SR leukemia
U251 CNS = test system: U251 CNS

Measured: TGI

O=C(CC1(O)C(=O)Nc2ccccc21)c1ccc2ccccc2c1 (centres undefined)
not listed: CCRF-CEM leukemia | HOP-18 NSCLC | KM12 colon | SR leukemia | U251 CNS
> 100 µM: all other assays above

O=c1[nH]ccc2c1ccn2C1CC(O)C(CO)O1 (centres undefined)
not listed: KM20L2 colon | RXF 393 renal | SF-268 CNS | XF 498 CNS
> 100 µM: all other assays above
